Each block holds one compound with its values, some of them ahead of it.
Experiments:
pancreatic lipase = system: pancreatic lipase; design: method as in PMID 25389058; conditions: cited from earlier work
[1] = molecular target: T1, lipase from porcine pancreas, TYPE II (Sus scrofa, UniProt P00591); assay: pancreatic lipase inhibitory activity (Lipase Kit S, BALB substrate); assay type: biochemical; conditions: for pancreatic lipase inhibitory activity (in words): in vitro, 0.45, 0.90 and 4.5 mM
T1 construct: lipase from porcine pancreas, TYPE II; purchased Sigma-Aldrich; host or cells: porcine pancreas (tissue preparation)
T1 sequence (P00591 1-450): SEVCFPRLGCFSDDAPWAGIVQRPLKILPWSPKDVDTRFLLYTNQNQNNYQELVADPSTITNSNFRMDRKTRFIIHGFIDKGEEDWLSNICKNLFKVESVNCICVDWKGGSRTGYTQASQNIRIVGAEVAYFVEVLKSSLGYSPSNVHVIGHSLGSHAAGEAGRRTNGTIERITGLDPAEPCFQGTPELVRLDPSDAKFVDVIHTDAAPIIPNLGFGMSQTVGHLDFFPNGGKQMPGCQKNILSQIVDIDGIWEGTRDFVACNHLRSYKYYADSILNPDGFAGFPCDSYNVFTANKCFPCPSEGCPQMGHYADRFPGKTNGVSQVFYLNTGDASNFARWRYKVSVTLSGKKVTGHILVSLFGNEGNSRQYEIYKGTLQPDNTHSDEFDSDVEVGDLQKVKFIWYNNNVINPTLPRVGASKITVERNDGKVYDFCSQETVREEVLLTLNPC
Description: The pancreatic lipase activity of each test sample was measured by a modified method using a commercially available kit (Lipase Kit S, Dainippon Pharmaceutical). The purities of test samples were confirmed by HPLC analysis (Figure S6 in Supplementary Materials). Cetilistat was used as a positive control at 0.1, 1.0, and 10 μM. Test sample was dissolved in EtOH–H2O (1:1) and diluted to concentrations of 0.45, 0.90, and 4.5 mM, respectively. Lipase (lipase from porcine pancreas, TYPE II, 100–500 units/mg) was purchased from Sigma-Aldrich. Briefly, test sample was mixed with enzyme buffer, and incubated for 5 min at 30 °C. After incubation, 2,3-dimercapto-1-propanol tributyrate (BALB) as substrate was added and the enzyme reaction was proceeded for 30 min at 30 °C. Lipase activity was determined by measuring the absorbance of the resulting 5-thio-2-nitrobenzoate anion at 412 nm using a microplate reader. The inhibition rate was calculated by the following formula: Inhibition rate (%) = [1 − (ΔAsample − ΔAblank)/(ΔAcontrol − ΔAblank)] × 100. The inhibitory concentration (IC50) was calculated by log-Probit analysis.

ddY mice = assay: serum TG levels in intralipid (soybean oil)-loaded mice; assay type: in vivo; conditions: for serum TG levels: 15 min before intralipid loading, 120 min after intralipid, mean ± S.E.M., n = 5
Description: Male ddY mice, 5 weeks old, were purchased from Japan Laboratory Animals and maintained in the animal facility of the Tokyo University of Pharmacy and Life Sciences. The animals were housed in cages under controlled temperature (23 ± 2 °C) and a 12 h light-dark cycle. The mice were allowed free access to breeding food and water. All experiments were approved by the Tokyo University of Pharmacy and Life Sciences Animal Use Committee (approval number: P17-84, date of approval: 24 April 2017).
After 5 weeks, mice were fasted overnight and randomly divided into five groups (n = 5). The body weight of each mouse was measured (24.0–30.7 g/body). 0.5% Carboxymethyl cellulose (CMC; Wako Pure Chemical Industries), cetilistat (Tokyo Kasei, purity > 98.0%; 180 mg/kg), or compound 6 (150 or 300 mg/kg) were prepared for test samples and the intralipid (soybean oil 20% emulsion, 20 mL/kg, Sigma-Aldrich) was used for the high-fat diet. Single dose of 0.5% CMC, cetilistat, and compound 6 (150 or 300 mg/kg) were orally administered to mice in each group (n = 5) 15 min before the intralipid loading. Blood samples were collected from the abdominal vena cava 120 min after the intralipid-loaded treatment and centrifuged (700× g for 10 min) to obtain serum samples. The TG levels in serum were measured using a commercially available kit (Wako Triglyceride E-Test kit, Wako Pure Chemical Industries).

[2] = system: cyclic adenosine monophosphatase (cAMP) phosphodiesterase; design: method as in PMID 8149459, doi:10.1246/cl.1992.1863; conditions: cited from earlier work
mice = system: mice; design: method as in earlier work; conditions: oral administration; cited from earlier work
[3] = mean ± S.E.M. of three experiments in triplicate, tested at 0.45, 0.90, 4.5 mM

Compound: CC(C)=CCCC(C(=O)O)C1CCC2(C)C3CCC4C(C)(CCC(O)C4(C)C)C3=CCC12C (stereo not drawn) [3β-Hydroxylanosta 9,24-dien-21-oic acid]
pancreatic lipase inhibition (in words) (pancreatic lipase): inhibit the pancreatic lipase activity

IC50 ([1]; positive control, tested at 0.1, 1.0, 10 μM, mean ± S.E.M.): 1.43 ± 0.052 µM
Compound: CCCCCCCCCCCCCCCCOc1nc2ccc(C)cc2c(=O)o1 [Cetilistat, reference compound]
serum TG levels (ddY mice; 180 mg/kg oral): 130.2 ± 23.4 mg/dL

Compound: COC(=O)/C(C)=C/[C@H]1[C@H](OC)O[C@H]2C[C@@]3(C)C4=C(CC[C@]3(C)[C@@]2(O)[C@@H]1C)[C@@]1(C)CC[C@H](O[C@@H]2O[C@H](CO)[C@@H](O)[C@H](O)[C@H]2O[C@@H]2O[C@H](CO)[C@@H](O)[C@H](O)[C@H]2O[C@@H]2O[C@@H](C)[C@H](O)[C@@H](O)[C@H]2O)C(C)(C)[C@@H]1CC4 [Compound 2, 23α-methyl-peruvianoside A]
pancreatic lipase inhibitory activity (in words) [1]: significant pancreatic lipase inhibitory activity in a concentration-dependent manner | IC50 [1, 3]: 840 ± 29 µM

Compound: COC(=O)/C(C)=C/[C@H]1[C@@H](OC)O[C@H]2C[C@@]3(C)C4=C(CC[C@]3(C)[C@@]2(O)[C@@H]1C)[C@@]1(C)CC[C@H](O[C@@H]2O[C@H](CO)[C@@H](O)[C@H](O)[C@H]2O[C@@H]2O[C@H](CO)[C@@H](O)[C@H](O)[C@H]2O[C@@H]2O[C@@H](C)[C@H](O)[C@@H](O)[C@H]2O)C(C)(C)[C@@H]1CC4 [Compound 3, 23β-methyl-peruvianoside A]
pancreatic lipase inhibitory activity (in words) [1]: significant pancreatic lipase inhibitory activity in a concentration-dependent manner | IC50 [1, 3]: 590 ± 20 µM

Compound: COC(=O)/C(C)=C/[C@H]1[C@H](O)O[C@H]2C[C@@]3(C)C4=C(CC[C@]3(C)[C@@]2(O)[C@@H]1C)[C@@]1(C)CC[C@H](O[C@@H]2O[C@H](CO)[C@@H](O)[C@H](O)[C@H]2O[C@@H]2O[C@H](CO)[C@@H](O)[C@H](O)[C@H]2O[C@@H]2O[C@@H](C)[C@H](O)[C@@H](O)[C@H]2O)C(C)(C)[C@@H]1CC4 [Compound 4, peruvianoside A]
IC50 [1, 3]: 1420 ± 40 µM | cAMP phosphodiesterase inhibitory activity (in words) [2]: show cyclic adenosine monophosphatase (cAMP) phosphodiesterase inhibitory activity

Compound: COC(=O)/C(C)=C/[C@H]1[C@H](O)O[C@H]2C[C@@]3(C)C4=C(CC[C@]3(C)[C@@]2(O)[C@@H]1C)[C@@]1(C)CC[C@H](O[C@@H]2O[C@H](CO)[C@@H](O)[C@H](O)[C@H]2O[C@@H]2O[C@H](CO)[C@@H](O)[C@H](O)[C@H]2O[C@@H]2O[C@@H](C)[C@H](O)[C@@H](O)[C@H]2O)[C@](C)(CO)[C@@H]1CC4 [Compound 5, peruvianoside B]
IC50 [1, 3]: 1400 ± 35 µM

Compound: CC1CC2(CC(C)C3(CCC4(C)C5=C(CCC43C)C3(C)CCC(OC4OC(COC6OCC(O)C(O)C6OC6OC(CO)C(O)C(O)C6OC6OC(C)C(O)C(O)C6O)C(O)C(O)C4O)C(C)(CO)C3CC5)O2)OC1=O [Compound 6, (23S,25R)-3β,31-dihydroxy-17α,23-epoxy-5α-lanost-8-en-23,26-olactone3β-O-[O-α-L-rhamnopyranosyl-(1→2)-O-β-D-gluco-pyranosyl-(1→2)-O-α-L-arabinopyranosyl-(1→6)-O-β-D-glucopyranoside]]
pancreatic lipase inhibitory activity (in words) [1]: significant pancreatic lipase inhibitory activity in a concentration-dependent manner | IC50 [1, 3]: 810 ± 29 µM | serum TG levels (ddY mice; 300 mg/kg single oral dose): 90.9 ± 16.2 mg/dL | effect on serum triglyceride levels (in words) (ddY mice; oral, 150 or 300 mg/kg, soybean oil-loaded mice): reduced serum triglyceride levels in a dose-dependent manner

Compound: CC1CC2(CC(C)C3(CCC4(C)C5=C(CCC43C)C3(C)CCC(OC4OC(COC6OCC(O)C(O)C6OC6OC(CO)C(O)C(O)C6OC6OC(C)C(O)C(O)C6O)C(O)C(O)C4O)C(CO)(CO)C3CC5)O2)OC1=O [Compound 7, (23S,25R)-3β,30,31-trihydroxy-17α,23-epoxy-5α-lanost-5-en-23,26-olactone3-O-[O-α-L-rhamno-pyranosyl-(1→2)-O-β-D-glucopyranosyl-(1→2)-O-α-L-arabinopyranosyl-(1→6)-O-β-D-glucopyranoside]]
IC50 [1, 3]: 1100 ± 15 µM

Compound: CCC(=O)[C@@H]1C[C@@H](C)[C@]2(CC[C@@]3(C)C4=C(CC[C@@]32C)[C@@]2(C)CC[C@H](O[C@@H]3O[C@H](CO[C@@H]5OC[C@H](O)[C@H](O)[C@H]5O[C@@H]5O[C@H](CO)[C@@H](O)[C@H](O[C@@H]6O[C@H](CO)[C@@H](O)[C@H](O)[C@H]6O)[C@H]5O[C@@H]5O[C@@H](C)[C@H](O)[C@@H](O)[C@H]5O)[C@@H](O)[C@H](O)[C@H]3O)[C@](C)(CO)[C@@H]2CC4)O1 [Compound 9, 15-deoxy-eucosterol3β-[O-β-D-glucopyranosyl-(1→3)-O-[α-L-rhamnopyranosyl-(1→2)]-β-D-glucopyranosyl-(1→2)-O-α-L-arabinopyranosyl-(1→6)-O-β-D-glucopyranoside]]
IC50 [1, 3]: 910 ± 23 µM

Compound: CCC(=O)[C@@H]1C[C@@H](C)[C@]2(CC[C@@]3(C)C4=C(CC[C@@]32C)[C@@]2(C)CC[C@H](O[C@@H]3O[C@H](CO[C@@H]5OC[C@H](O)[C@H](O)[C@H]5O[C@@H]5O[C@H](CO)[C@@H](O)[C@H](O[C@@H]6O[C@H](CO)[C@@H](O)[C@H](O)[C@H]6O)[C@H]5O[C@@H]5O[C@@H](C)[C@H](O)[C@@H](O)[C@H]5O)[C@@H](O)[C@H](O)[C@H]3O)C(CO)(CO)[C@@H]2CC4)O1 [Compound 10, 15-deoxy-30-hydroxyeucosterol3β-[O-β-D-glucopyranosyl-(1→3)-O-[α-L-rhamnopyranosyl-(1→2)]-β-D-glucopyranosyl-(1→2)-O-α-L-arabinopyranosyl-(1→6)-O-β-D-glucopyranoside]]
IC50 [1, 3]: 1130 ± 62 µM

Compound: C[C@@H]1O[C@@H](O[C@H]2[C@H](O[C@H]3[C@H](OC[C@H]4O[C@@H](O[C@H]5CC[C@]6(C)C7=C(CC[C@H]6[C@@]5(C)CO)[C@]5(C)CC[C@@]6(OC(=O)C[C@H]6C)[C@@]5(C)CC7)[C@H](O)[C@@H](O)[C@@H]4O)OC[C@H](O)[C@@H]3O)O[C@H](CO)[C@@H](O)[C@@H]2O[C@@H]2O[C@H](CO)[C@@H](O)[C@H](O)[C@H]2O)[C@H](O)[C@H](O)[C@H]1O [Compound 11, scillanostaside G]
pancreatic lipase inhibitory activity (in words) [1]: inhibited the pancreatic lipase activity in an inverted dose-dependent manner | IC50 [1, 3]: > 4500 µM

Compound: C=C1C(O)CCC2C1(C)CCC1C2(C)CCC2(C)C3C(C(C)C)CCC3(C)CCC12C (stereo not drawn) [cymbopogonol]
effect on serum TG levels (in words) (mice): reduced serum TG levels in mice

Compound: scillasaponin B
cAMP phosphodiesterase inhibitory activity (in words) [2]: show cyclic adenosine monophosphatase (cAMP) phosphodiesterase inhibitory activity

— paper PMC7865276, “Chemical Constituents of the Bulbs of Scilla peruviana and Their Pancreatic Lipase Inhibitory Activity” (International Journal of Molecular Sciences, 2021)
